Laboratory results: PubChem BioAssay (NCI)
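Results reflect a 48-hour exposure of cells in 96-well plates to compound at five concentrations. TGI denotes the concentration required for complete inhibition of growth.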

How the values were obtained:
Assay in all cases: DTP human tumour cell line panel, 48 h
[1] = system: OVCAR-4 ovarian
[2] = system: RPMI-8226 leukemia
[3] = system: HOP-92 NSCLC
[4] = system: NCI-H23 lung
[5] = system: SF-268 CNS
[6] = system: HCC-2998 colon
[7] = system: SR leukemia
[8] = system: HCT-116 colon
[9] = system: SNB-75 CNS
[10] = system: CCRF-CEM leukemia
[11] = system: UACC-257 melanoma
[12] = system: NCI/ADR-RES ovarian
[13] = system: OVCAR-5 ovarian
[14] = system: HL-60(TB) leukemia
[15] = system: A549 NSCLC
[16] = system: OVCAR-3 ovarian
[17] = system: COLO 205 colon
[18] = system: SK-OV-3 ovarian
[19] = system: ACHN renal
[20] = system: MDA-MB-231 breast
[21] = system: A498 renal
[22] = system: SK-MEL-28 melanoma
[23] = system: HCT-15 colon
[24] = system: UACC-62 melanoma
[25] = system: HT29 colon
[26] = system: BT-549 breast
[27] = system: KM12 colon
[28] = system: SK-MEL-2 melanoma
[29] = system: PC-3 prostate
[30] = system: SNB-19 CNS
[31] = system: SF-539 CNS
[32] = system: LOX IMVI melanoma
[33] = system: SK-MEL-5 melanoma
[34] = system: U251 CNS
[35] = system: MALME-3M melanoma
[36] = system: OVCAR-8 ovarian
[37] = system: RXF 393 renal
[38] = system: TK-10 renal
[39] = system: DU-145 prostate
[40] = system: EKVX NSCLC
[41] = system: SF-295 CNS
[42] = system: NCI-H226 lung
[43] = system: MDA-MB-435
[44] = system: HS 578T breast
[45] = system: M14 melanoma
[46] = system: SW-620 colon
[47] = system: K-562 leukemia
[48] = system: MOLT-4 leukemia
[49] = system: UO-31 renal
[50] = system: CAKI-1 renal
[51] = system: NCI-H460 lung
[52] = system: 786-0 renal
[53] = system: SN12C renal
[54] = system: T-47D breast
[55] = system: MDA-N
[56] = system: HOP-62 NSCLC
[57] = system: IGROV1 ovarian
[58] = system: MCF7 breast
[59] = system: NCI-H522 lung

Structure (SMILES): CN(C)CCCNC(=O)c1cc(NS(=O)(=O)c2ccc3c(c2)C(=O)c2ccccc2C3=O)cn1C
- TGI [1]: 36.8 µM
- TGI [2]: 53.2 µM
- TGI [3]: > 100 µM
- TGI [4]: 64.7 µM
- TGI [5]: 72.5 µM
- TGI [6]: 57.3 µM
- TGI [7]: 85.2 µM
- TGI [8]: > 100 µM
- TGI [9]: 56 µM
- TGI [10]: > 100 µM
- TGI [11]: 37.6 µM
- TGI [12]: > 100 µM
- TGI [13]: > 100 µM
- TGI [14]: 62.3 µM
- TGI [15]: > 100 µM
- TGI [16]: > 100 µM
- TGI [17]: > 100 µM
- TGI [18]: > 100 µM
- TGI [19]: 49.5 µM
- TGI [20]: 85.5 µM
- TGI [21]: 42.6 µM
- TGI [22]: 50.8 µM
- TGI [23]: > 100 µM
- TGI [24]: 41.4 µM
- TGI [25]: 81.4 µM
- TGI [26]: 53.9 µM
- TGI [27]: 41.1 µM
- TGI [28]: > 100 µM
- TGI [29]: > 100 µM
- TGI [30]: 39.6 µM
- TGI [31]: 75.6 µM
- TGI [32]: 39.6 µM
- TGI [33]: 37.4 µM
- TGI [34]: > 100 µM
- TGI [35]: 18.7 µM
- TGI [36]: > 100 µM
- TGI [37]: 57.4 µM
- TGI [38]: 51.3 µM
- TGI [39]: 76.3 µM
- TGI [40]: > 100 µM
- TGI [41]: 94.9 µM
- TGI [42]: 42.5 µM
- TGI [43]: 59 µM
- TGI [44]: > 100 µM
- TGI [45]: 62.8 µM
- TGI [46]: > 100 µM
- TGI [47]: > 100 µM
- TGI [48]: > 100 µM
- TGI [49]: > 100 µM
- TGI [50]: > 100 µM
- TGI [51]: 54.9 µM
- TGI [52]: 77.3 µM
- TGI [53]: 90.7 µM
- TGI [54]: > 100 µM
- TGI [55]: 60 µM
- TGI [56]: > 100 µM
- TGI [57]: 75.1 µM
- TGI [58]: 46.4 µM
- TGI [59]: 52.5 µM

Structure (SMILES): c1ccc(Cn2c(-c3ccc(-c4ccccc4)cc3)cc3ccccc32)cc1
- TGI [1]: > 100 µM
- TGI [2]: > 100 µM
- TGI [3]: > 100 µM
- TGI [4]: > 100 µM
- TGI [5]: > 100 µM
- TGI [6]: > 100 µM
- TGI [7]: > 100 µM
- TGI [8]: > 100 µM
- TGI [9]: > 100 µM
- TGI [10]: > 100 µM
- TGI [11]: > 100 µM
- TGI [12]: > 100 µM
- TGI [13]: > 100 µM
- TGI [14]: > 100 µM
- TGI [15]: > 100 µM
- TGI [16]: > 100 µM
- TGI [17]: > 100 µM
- TGI [18]: > 100 µM
- TGI [19]: > 100 µM
- TGI [20]: > 100 µM
- TGI [22]: > 100 µM
- TGI [23]: > 100 µM
- TGI [24]: > 100 µM
- TGI [25]: > 100 µM
- TGI [26]: > 100 µM
- TGI [27]: > 100 µM
- TGI [28]: > 100 µM
- TGI [29]: > 100 µM
- TGI [30]: > 100 µM
- TGI [31]: > 100 µM
- TGI [32]: > 100 µM
- TGI [33]: > 100 µM
- TGI [34]: > 100 µM
- TGI [35]: > 100 µM
- TGI [36]: > 100 µM
- TGI [38]: > 100 µM
- TGI [39]: > 100 µM
- TGI [40]: > 100 µM
- TGI [41]: > 100 µM
- TGI [42]: > 100 µM
- TGI [43]: > 100 µM
- TGI [44]: > 100 µM
- TGI [45]: > 100 µM
- TGI [46]: > 100 µM
- TGI [48]: > 100 µM
- TGI [49]: > 100 µM
- TGI [50]: > 100 µM
- TGI [51]: > 100 µM
- TGI [52]: > 100 µM
- TGI [53]: > 100 µM
- TGI [54]: > 100 µM
- TGI [55]: > 100 µM
- TGI [56]: > 100 µM
- TGI [57]: > 100 µM
- TGI [58]: > 100 µM
- TGI [59]: > 100 µM

Structure (SMILES): O=[N+]([O-])c1cc(-[n+]2cc([O-])on2)ccc1Cl
- TGI [1]: 29.1 µM
- TGI [2]: 79.8 µM
- TGI [3]: 42.1 µM
- TGI [4]: 26.6 µM
- TGI [5]: 78.3 µM
- TGI [6]: 34.9 µM
- TGI [7]: > 100 µM
- TGI [8]: 39.8 µM
- TGI [9]: 66.3 µM
- TGI [10]: 62.4 µM
- TGI [11]: 27.5 µM
- TGI [12]: 58.8 µM
- TGI [13]: 32.4 µM
- TGI [14]: > 100 µM
- TGI [15]: > 100 µM
- TGI [16]: > 100 µM
- TGI [17]: > 100 µM
- TGI [18]: > 100 µM
- TGI [19]: 29.5 µM
- TGI [20]: 37.7 µM
- TGI [22]: 29.6 µM
- TGI [23]: 73.7 µM
- TGI [24]: 89.8 µM
- TGI [25]: 28.5 µM
- TGI [26]: 49 µM
- TGI [27]: 54.9 µM
- TGI [28]: 46.3 µM
- TGI [29]: > 100 µM
- TGI [30]: 27.1 µM
- TGI [32]: 33.7 µM
- TGI [33]: 21.9 µM
- TGI [34]: 30.7 µM
- TGI [35]: 32.9 µM
- TGI [36]: 49.7 µM
- TGI [37]: 27.9 µM
- TGI [38]: 67.2 µM
- TGI [39]: 30.5 µM
- TGI [40]: 37.8 µM
- TGI [41]: 51.5 µM
- TGI [42]: > 100 µM
- TGI [43]: > 100 µM
- TGI [44]: 31.3 µM
- TGI [45]: 41.8 µM
- TGI [46]: 26.2 µM
- TGI [47]: > 100 µM
- TGI [49]: 31 µM
- TGI [50]: 5.01 µM
- TGI [51]: > 100 µM
- TGI [52]: 60.3 µM
- TGI [53]: 29.8 µM
- TGI [54]: 38.8 µM
- TGI [55]: 39.9 µM
- TGI [56]: 30.1 µM
- TGI [57]: 64.5 µM
- TGI [58]: 43.3 µM
- TGI [59]: 31.7 µM
